From publication PMC12298629, “New Derivatives of Caracasine Acid with Anti-Leukemic Activity and Limited Effectiveness in Spheroid Cultures” (Pharmaceuticals, 2025)

Columns and labels:
BJ LD = experiment: Cytotoxic MTS assay, BJ LD fibroblasts (doxorubicin-resistant); type: cell-based; conditions: Fibroblast, doxorubicin-resistant human fibroblasts, 72 h, median of five assays
Source text: The cancer cell lines used in the cytotoxic assays were acquired from the American Tissue Culture Collection (ATCC) (Manassas, VA, USA) and maintained as described previously. The MRC-5 and BJ human fibroblasts were used as non-tumoral control cells. The (MRC-5 LD and BJ LD) are also human fibroblast cell lines resistant to doxorubicin. […] The Raji and Ramos cell lines correspond to B-cell leukemia. Other cells, such as U2OS, represent a child osteosarcoma, while HCT116 is a colorectal tumor cell line. (HCT116p53^−/−, Horizon Discovery Ltd., Cambridge, UK) is a similar cell line with its p53 gene knocked down, serving as a model of human cancer frequently associated with a poor prognosis. The cells were maintained in Nunc/corning 80 cm^2 plastic tissue culture flasks and cultured in a cell culture medium according to ATCC or Horizon recommendations (McCoy, DMEM/RPMI 1640 with 5 g/L glucose, 2 mM glutamine, 100 U/mL penicillin, […] streptomycin, 10% fetal calf serum, and NaHCO3). The compounds were freshly dissolved in DMSO. The final concentration of DMSO was 0.01% in the cell culture.
The in vitro cytotoxicity of compounds (1–7) was assessed using the standard 3-(4,5-dimethyl-thiazol-2yl)-5-(3-carboxymethoxyphenyl)-2-(sulfophenyl)-2H-tetrazolium (MTS). The assay was performed at the Institute of Molecular and Translational Medicine using a robotic platform (High-ResBiosolutions, Beverly, MA, USA). Cell suspensions were prepared and diluted according to the specific cell type and the expected target cell density (25,000–35,000 cells/mL, based on cell growth characteristics). An automatic pipettor (30 μL) was used to add cells into 384-well microtiter plates. All tested compounds were dissolved in 100% DMSO, and four-fold dilutions of the intended test concentrations were added in 0.15 μL aliquots at time zero to the microtiter plate wells by the echo acoustic non-contact liquid handler Echo550 (Labcyte, San Jose, CA, USA). The assays were accomplished in technical duplicates and at least three biological replicates. The cells were incubated with the tested compound for 72 h at 37 °C in a 5% CO2 atmosphere with 100% humidity. At the end of the incubation period, cells were assayed using the MTS test. Aliquots (5 μL) of the MTS stock solution were pipetted into each well and incubated for 1–4 h. After this incubation period, the optical density (OD) was measured at 490 nm using an Envision reader (PerkinElmer, Waltham, MA, USA). Tumor cell survival (TCS) was calculated using the following equation: TCS = (OD drug-exposed well/mean OD control wells) × 100%. The IC50 value, representing the concentration of the compound lethal to 50% of the tumor cells, was calculated from the corresponding dose-response curves using Dotmatics software (Updated version 2022, London, UK). After three days of incubation on the cancer cell lines and normal fibroblasts, the […] (IC50) were obtained. Five assays were performed for each cell line. The standard error of the assays was lower than 10%, as assessed by the triplicate assays.

A549 spheroids = experiment: Spheroid viability assay (CellTiter-Glo 3D), A549 spheroids; type: cell-based; conditions: A549, human tumors spheroids, 72 h, 100 pM to 50 μM
Protocol: (§1) Spheroid culture aims to analyze the drug’s effect on complex structures resembling solid tumors. The spheroids were prepared using the specific nonadherent plates for spheroid formation (Nunc Sphera, Thermo Fisher, Waltham, MA, USA) according to the simple protocol outlined by the manufacturer. The cell lines HCT116 parental, HCT116KOTp53, A549, and U2OS were cultured at a density of 2500 cells per well using medium containing 10% fetal calf serum and antibiotics: McCoy’s 5A medium for HCT116, F-12K (Kaighn’s Modified) for A549, and Dulbecco’s Modified Eagle Medium (DMEM). The cells were grown in culture for 48 h as recommended by the manufacturer and as described by Das et al. and Muñoz-Garcia et al..
(§2) The cell viability of the treated spheroids was assessed using the kit CellTiter-Glo 3D (Promega Corporation, Madison, WI, USA). The kit is designed to measure ATP as an indicator of viability, generating a luminescent readout that is more sensitive than colorimetric or fluorescence-based methods. The spheroids were cultivated with compounds at concentrations ranging from 100 pM to 50 μM in triplicate for 72 h, and the luminescence was measured using the Enspire apparatus (PerkinElmer). A standard curve was performed for each analysis as recommended by the manufacturer.

U2OS spheroids = experiment: Spheroid viability assay (CellTiter-Glo 3D), U2OS spheroids; type: cell-based; conditions: U2OS, human tumors spheroids, 72 h, 100 pM to 50 μM
Protocol: as §1, §2

leukemic cells = experiment: Effect on the cell cycle; type: cell-based, human; conditions: comparable concentrations to caracasine acid
normal human leukocytes = tested on: normal human leukocytes; design: method as in PMID 31449809, PMID 35430982; conditions: 0.1 nM to 50 μM in 0.01% DMSO; cited from earlier work

IC50 (A549 spheroids) [µM]	IC50 (U2OS spheroids) [µM]	Compound	IC50 (BJ LD) [µM]	Effect on the cell cycle (leukemic cells)	Effect on primary leukocytes (normal human leukocytes)
> 50	> 50	C=C1C(=O)C23CCC(C(=C)C)C(C)(CCC(=O)OC(C)=O)C2CCC1C3 (stereo not drawn) [Compound 7, Caracasine-Acetic Anhydride]	7.63	–	–
> 50	> 50	C=C(C)C1CCC23CC(CCC2C1(C)CCC(=O)OC(C)=O)C(C)C3=O (single isomer, unassigned; ent-3) [Compound 6, Ent-3,4-Seco-15-Oxo-Kaur-4(19)-en-Acetic Anhydride]	> 50	no effect	–
> 50	> 50	C=C1C(=O)C23CCC(C(=C)C)C(C)(CCC(=O)OC)C2CCC1C3 (stereo not drawn) [Compound 2, Caracasine]	7.42	–	no significant effect
> 50	> 50	C=C(C)C1CCC23CC(CCC2C1(C)CCC(=O)O)C(C)C3=O (single isomer, unassigned; ent-3) [Compound 5, Ent-3,4-Seco-15-Oxo-Kaur-4(19)-en-3-Oic Acid]	> 50	no effect	–
